Some test systems named below: CCRF-CEM leukemia; COLO 205 colon; LOX IMVI melanoma; MDA-MB-231 breast; MDA-MB-435; NCI-H460 lung; NCI/ADR-RES ovarian; OVCAR-3 ovarian; SF-539 CNS; TK-10 renal.
Holding throughout (assay): NCI-60 cell line screen, 48 h

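Assay format: 96-well plates, 48-hour exposure. Definition used: TGI = concentration required for complete inhibition of growth.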 Some results are limits rather than exact numbers.

For `O=C(/C=C/c1ccc2c(c1)OCO2)c1ccc(O)cc1`, the TGI was found to be 35.3 µM with CCRF-CEM leukemia; 31.3 µM in the experiment with COLO 205 colon; 24.8 µM with LOX IMVI melanoma; 31.5 µM with MDA-MB-231 breast; 34.1 µM in the experiment with MDA-MB-435; 28.6 µM in the experiment with NCI-H460 lung. Further, the TGI was 3.52 µM in the experiment with NCI/ADR-RES ovarian, 28.9 µM with OVCAR-3 ovarian, 32.5 µM in the experiment with SF-539 CNS and 33.1 µM with TK-10 renal.

Take `Cc1ccccc1OC(C)C(=O)NN1C(=O)CSC1c1ccccc1` (configuration not stated): the TGI in the experiment on COLO 205 colon, in the experiment with LOX IMVI melanoma, in the experiment with MDA-MB-231 breast, with MDA-MB-435, in the experiment with NCI-H460 lung and in the experiment with NCI/ADR-RES ovarian was over 100 µM in each case. Further, the TGI in the experiment on OVCAR-3 ovarian, with SF-539 CNS and in the experiment with TK-10 renal was over 100 µM in each case.

As to `CC(=O)N(C(=O)CC(=O)N1N=C(c2ccccc2)C(N=Nc2ccccc2[N+](=O)[O-])C1=O)c1ccc(Cl)cc1` (configuration not stated), the TGI in the experiment with CCRF-CEM leukemia, with COLO 205 colon, in the experiment with LOX IMVI melanoma, in the experiment with MDA-MB-231 breast, in the experiment on MDA-MB-435 and in the experiment on NCI-H460 lung was over 10 µM in each case. For the same compound, the TGI in the experiment on NCI/ADR-RES ovarian, in the experiment with OVCAR-3 ovarian, in the experiment on SF-539 CNS and with TK-10 renal was over 10 µM each time.

Take `COc1nncc2[nH]c(-c3ccccc3)cc12`: the TGI with CCRF-CEM leukemia, in the experiment on COLO 205 colon, in the experiment on LOX IMVI melanoma, in the experiment with MDA-MB-231 breast, in the experiment on MDA-MB-435 and in the experiment on NCI-H460 lung was over 100 µM throughout. Moreover, the TGI in the experiment on NCI/ADR-RES ovarian, with OVCAR-3 ovarian, in the experiment on SF-539 CNS and in the experiment on TK-10 renal was over 100 µM throughout.

Regarding `CC(=O)Oc1cccc2c1C(=O)CCCC2`, the TGI with CCRF-CEM leukemia, with COLO 205 colon, in the experiment with LOX IMVI melanoma, with MDA-MB-231 breast, in the experiment on MDA-MB-435 and in the experiment on NCI-H460 lung was over 100 µM in each case. Besides, the TGI in the experiment on NCI/ADR-RES ovarian, in the experiment with OVCAR-3 ovarian, in the experiment on SF-539 CNS and with TK-10 renal was over 100 µM in each case.

Regarding `COc1cc(S(=O)(=O)Nc2nc(-c3ccc(N4C(=O)C(CC(=O)O)SC4c4cccs4)cc3)cs2)ccc1Cl` (configuration not stated), the TGI in the experiment on COLO 205 colon was over 100 µM; in the experiment on LOX IMVI melanoma it was 39.3 µM; in the experiment with MDA-MB-231 breast, over 100 µM; in the experiment on MDA-MB-435, over 100 µM; in the experiment with NCI-H460 lung, over 100 µM; with NCI/ADR-RES ovarian it was 76.6 µM. Further, the TGI in the experiment on OVCAR-3 ovarian, with SF-539 CNS and with TK-10 renal was over 100 µM each time.

Turning to `Cc1cc(C)nc(NS(=O)(=O)c2ccc(NC(=O)c3ccc4nc5ccccc5c(Nc5ccc(S(N)(=O)=O)cc5)c4c3)cc2)n1`, the TGI in the experiment with CCRF-CEM leukemia was 78.3 µM; in the experiment on COLO 205 colon it was over 100 µM; in the experiment with LOX IMVI melanoma it was over 100 µM; in the experiment with MDA-MB-231 breast, over 100 µM; in the experiment on MDA-MB-435, over 100 µM; in the experiment on NCI-H460 lung it was over 100 µM. Further, the TGI in the experiment on NCI/ADR-RES ovarian, in the experiment on OVCAR-3 ovarian, in the experiment on SF-539 CNS and with TK-10 renal was over 100 µM in each case.

`Nn1c(-c2ccccc2)n[nH]c1=O`: the TGI in the experiment with CCRF-CEM leukemia, in the experiment on COLO 205 colon, in the experiment on LOX IMVI melanoma, with MDA-MB-231 breast, with MDA-MB-435 and in the experiment with NCI-H460 lung was over 100 µM each time. Besides, the TGI with NCI/ADR-RES ovarian, with OVCAR-3 ovarian, in the experiment with SF-539 CNS and with TK-10 renal was over 100 µM each time.

For `NC(=O)C(=Cn1c(=S)[nH]c2ccc([N+](=O)[O-])cc21)C(N)=O`, the TGI with COLO 205 colon, with LOX IMVI melanoma, with MDA-MB-231 breast, with MDA-MB-435, in the experiment on NCI-H460 lung and in the experiment with NCI/ADR-RES ovarian was over 100 µM each time. In addition, the TGI in the experiment on OVCAR-3 ovarian, in the experiment with SF-539 CNS and with TK-10 renal was over 100 µM in each case.

Consider `CCC(=O)NC(Nc1cc(C)on1)(C(F)(F)F)C(F)(F)F`, for which the TGI in the experiment on CCRF-CEM leukemia, in the experiment on LOX IMVI melanoma, in the experiment with MDA-MB-231 breast, in the experiment on MDA-MB-435, in the experiment on NCI-H460 lung and in the experiment with NCI/ADR-RES ovarian was over 100 µM each time. Further, the TGI in the experiment on OVCAR-3 ovarian, with SF-539 CNS and with TK-10 renal was over 100 µM each time.

On to `Oc1ccccc1CNCc1nc2ccccc2[nH]1`, for which the TGI was over 100 µM in the experiment on CCRF-CEM leukemia; 82.7 µM in the experiment on COLO 205 colon; over 100 µM in the experiment with LOX IMVI melanoma; over 100 µM with MDA-MB-231 breast; over 100 µM in the experiment with MDA-MB-435; 61.5 µM in the experiment with NCI/ADR-RES ovarian. Moreover, the TGI in the experiment with OVCAR-3 ovarian, with SF-539 CNS and in the experiment on TK-10 renal was over 100 µM throughout.

With `Cc1cc(Nc2ccc(S(=O)(=O)O)c3cc(S(=O)(=O)O)cc(S(=O)(=O)O)c23)c2ccccc2n1`, the TGI in the experiment with COLO 205 colon, in the experiment on LOX IMVI melanoma, in the experiment on MDA-MB-231 breast, in the experiment on MDA-MB-435, in the experiment with NCI-H460 lung and in the experiment with NCI/ADR-RES ovarian was over 100 µM in each case. In addition, the TGI with OVCAR-3 ovarian, with SF-539 CNS and in the experiment with TK-10 renal was over 100 µM throughout.

Regarding `N#CC(NCc1cccc(CNC(C#N)c2ccccc2)c1)c1ccccc1` (configuration not stated), the TGI with CCRF-CEM leukemia is 36.5 µM; in the experiment with COLO 205 colon, 42.6 µM; with LOX IMVI melanoma, 28.9 µM; in the experiment with MDA-MB-231 breast it was 74.2 µM; in the experiment on MDA-MB-435, over 100 µM; with NCI/ADR-RES ovarian, over 100 µM. The TGI is over 100 µM in the experiment on OVCAR-3 ovarian, 26.1 µM in the experiment with SF-539 CNS and over 100 µM in the experiment with TK-10 renal.

Take `COP(=O)(OC)C1=c2c(C)noc2=C2C=COC2C1=O` (configuration not stated): the TGI in the experiment with CCRF-CEM leukemia, in the experiment on COLO 205 colon, with LOX IMVI melanoma, in the experiment on MDA-MB-231 breast, with MDA-MB-435 and with NCI/ADR-RES ovarian was over 100 µM in each case. The TGI in the experiment on OVCAR-3 ovarian, in the experiment on SF-539 CNS and in the experiment with TK-10 renal was over 100 µM each time.

These data come from PubChem BioAssay (NCI).
